Columns and labels:
[1] = target: T1, follicle-stimulating hormone (FSH) receptor (Rattus norvegicus, UniProt P20395); test: Rat granulosa EC50 FSH (Assay B); type: cell-based
T1 construct: endogenous in cells; host or cells: rat granulosa cells
T1 sequence (P20395 18-692): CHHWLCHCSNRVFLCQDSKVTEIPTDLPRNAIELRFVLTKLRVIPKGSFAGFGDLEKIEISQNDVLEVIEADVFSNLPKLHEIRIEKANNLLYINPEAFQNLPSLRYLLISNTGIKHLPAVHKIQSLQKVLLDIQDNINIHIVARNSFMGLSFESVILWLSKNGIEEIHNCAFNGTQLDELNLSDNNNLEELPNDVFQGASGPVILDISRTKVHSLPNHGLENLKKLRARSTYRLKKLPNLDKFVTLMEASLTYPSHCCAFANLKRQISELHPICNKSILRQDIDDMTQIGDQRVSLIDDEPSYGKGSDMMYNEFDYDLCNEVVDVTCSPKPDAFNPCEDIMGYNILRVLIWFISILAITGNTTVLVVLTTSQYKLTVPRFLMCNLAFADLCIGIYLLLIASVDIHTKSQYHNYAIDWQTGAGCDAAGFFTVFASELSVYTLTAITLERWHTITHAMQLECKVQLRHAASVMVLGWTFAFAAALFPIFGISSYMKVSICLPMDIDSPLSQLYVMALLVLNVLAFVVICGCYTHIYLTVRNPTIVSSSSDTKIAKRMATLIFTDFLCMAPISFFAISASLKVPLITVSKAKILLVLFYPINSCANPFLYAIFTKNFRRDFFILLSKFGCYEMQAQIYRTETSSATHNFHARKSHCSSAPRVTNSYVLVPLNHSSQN
Procedure: Example 25. Rat granulosa EC50 FSH (Assay B)
The assay was performed pursuant to the teaching of Yanofsky et al. (2006) Allosteric activation of the follicle-stimulating hormone (FSH) receptor by selective, nonpeptide agonists (JBC 281(19): 13226-13233, which is incorporated by reference in the disclosure of the invention).

FSHR = target: T2, FSHR (Homo sapiens, UniProt P23945); test: EC50 of cyclic AMP production in CHO FSHR cells + EC20 FSH (Assay A); type: cell-based; conditions: cyclic AMP production in CHO FSHR cells + EC20 FSH (0.265 pM), HTRF
T2 construct: expressed in transfected cells; host or cells: CHO (Cho-FSHR-LUC-1-1-43)
T2 sequence (P23945 18-695): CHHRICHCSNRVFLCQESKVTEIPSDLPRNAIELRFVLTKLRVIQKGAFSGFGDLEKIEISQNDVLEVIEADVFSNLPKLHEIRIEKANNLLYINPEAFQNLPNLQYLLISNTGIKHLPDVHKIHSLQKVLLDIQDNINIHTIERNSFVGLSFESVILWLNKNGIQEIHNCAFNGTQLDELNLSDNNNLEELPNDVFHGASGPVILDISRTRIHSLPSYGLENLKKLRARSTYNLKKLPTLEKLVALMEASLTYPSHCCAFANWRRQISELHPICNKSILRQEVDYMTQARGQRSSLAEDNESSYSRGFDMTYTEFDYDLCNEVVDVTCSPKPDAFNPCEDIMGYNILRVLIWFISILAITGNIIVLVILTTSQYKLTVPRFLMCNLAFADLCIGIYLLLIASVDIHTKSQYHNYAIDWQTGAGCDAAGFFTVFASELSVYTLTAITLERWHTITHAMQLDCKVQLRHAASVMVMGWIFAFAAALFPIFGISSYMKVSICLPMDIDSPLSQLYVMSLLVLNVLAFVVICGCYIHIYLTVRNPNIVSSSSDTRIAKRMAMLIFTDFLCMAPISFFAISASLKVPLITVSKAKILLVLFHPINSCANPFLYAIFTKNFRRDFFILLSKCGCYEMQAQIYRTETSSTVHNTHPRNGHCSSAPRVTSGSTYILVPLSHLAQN
Procedure, shortened: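 cAMP was detected by HTRF as the 665/620 nm ratio. The CHO-FSHR cells had first been exposed for 1 h at 37° C to test compound together with 0.265 pM FSH (EC20) and 200 μM IBMX. Responses are given as percent of the FSH standard maximum.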

Row | EC50 [1] [nM] | EC50 (FSHR) [nM] | Structure (SMILES)
1 | 10 to 100 | < 10 | COc1cc2c(cc1-c1cncc(C#N)c1)-c1c(c(C(=O)N(C)C(C)(C)C#N)nn1-c1cc(F)cc(F)c1)CO2 [Compound 105, N-(2-cyanopropan-2-yl)-8-(5-cyanopyridin-3-yl)-1-(3,5-difluorophenyl)-7-methoxy-N-methyl-1,4-dihydrochromeno[4,3-c]pyrazole-3-carboxamide]
2 | 10 to 100 | < 10 | COc1cc2c(cc1-c1cccc(F)c1C#N)-c1c(c(C(=O)N(C)C(C)(C)C)nn1-c1cc(Cl)cc(Cl)c1)CO2 [Compound 25, N-tert-butyl-8-(2-cyano-3-fluorophenyl)-1-(3,5-dichlorophenyl)-7-methoxy-N-methyl-1,4-dihydrochromeno[4,3-c]pyrazole-3-carboxamide]
3 | 10 to 100 | < 10 | COc1cc2c(cc1-c1cc(C(N)=O)ncc1F)-c1c(c(C(=O)N(C)C(C)(C)C#N)nn1-c1cc(F)cc(F)c1)CO2 [Compound 109, 8-(2-carbamoyl-5-fluoropyridin-4-yl)-N-(2-cyanopropan-2-yl)-1-(3,5-difluorophenyl)-7-methoxy-N-methyl-1,4-dihydrochromeno[4,3-c]pyrazole-3-carboxamide]
4 | 101 to 500 | 10 to 100 | COc1cc2c(cc1-c1ccn(C)n1)-c1c(c(C(=O)N3CCOCC3(C)C)nn1-c1cc(C)cc(Cl)c1)CO2 [Compound 31, (1-(3-chloro-5-methylphenyl)-7-methoxy-8-(1-methyl-1H-pyrazol-3-yl)-1,4-dihydrochromeno[4,3-c]pyrazol-3-yl)(3,3-dimethylmorpholino)methanone]
5 | 10 to 100 | < 10 | COc1cc2c(cc1-c1cnccc1C(N)=O)-c1c(c(C(=O)N(C)C(C)(C)C)nn1-c1cc(Cl)cc(Cl)c1)CO2 [Compound 153]
6 | > 500 | 10 to 100 | CCOC(=O)[C@@H]1C[C@@H]1c1cc2c(cc1OC)OCc1c(C(=O)N(C)C(C)(C)C)nn(-c3cc(Cl)cc(Cl)c3)c1-2 (racemic) [Compound 197, (1RS,2SR)-ethyl 2-(3-(tert-butyl(methyl)carbamoyl)-1-(3,5-dichlorophenyl)-7-methoxy-1,4-dihydrochromeno[4,3-c]pyrazol-8-yl)cyclopropanecarboxylate]
7 | 101 to 500 | 10 to 100 | COc1cc2c(cc1-c1cnn(CC(=O)O)c1)-c1c(c(C(=O)N3CCOCC3(C)C)nn1-c1cc(F)cc(Cl)c1)CO2 [Compound 84, 2-(4-(1-(3-chloro-5-fluorophenyl)-3-(3,3-dimethylmorpholine-4-carbonyl)-7-methoxy-1,4-dihydrochromeno[4,3-c]pyrazol-8-yl)-1H-pyrazol-1-yl)acetic acid]
8 | 101 to 500 | < 10 | COc1cc2c(cc1-c1cc(F)cc(C(=O)O)c1)-c1c(c(C(=O)N(C)C(C)(C)C)nn1-c1cc(Cl)cc(Cl)c1)CO2 [Compound 83, 3-(3-(tert-butyl(methyl)carbamoyl)-1-(3,5-dichlorophenyl)-7-methoxy-1,4-dihydrochromeno[4,3-c]pyrazol-8-yl)-5-fluorobenzoic acid]
9 | 101 to 500 | < 10 | COc1cc2c(cc1-c1cnc(N)c(C)c1)-c1c(c(C(=O)N(C)C(C)(C)C)nn1-c1cc(Cl)cc(Cl)c1)CO2 [Compound 17, 8-(6-amino-5-methylpyridin-3-yl)-N-tert-butyl-1-(3,5-dichlorophenyl)-7-methoxy-N-methyl-1,4-dihydrochromeno[4,3-c]pyrazole-3-carboxamide]
10 | 101 to 500 | < 10 | COc1cc2c(cc1-c1cc(=O)[nH]n1C)-c1c(c(C(=O)N(C)C(C)(C)C)nn1-c1ccsc1)CO2 [Compound 187]
11 | 10 to 100 | < 10 | [2H]C([2H])([2H])Oc1cc(Cl)cc(-n2nc(C(=O)N(C)C(C)(C)C)c3c2-c2cc(-c4cncc(C#N)c4)c(OC([2H])([2H])[2H])cc2OC3)c1 [Compound 36, N-tert-butyl-1-(3-chloro-5-D3-methoxyphenyl)-8-(5-cyanopyridin-3-yl)-7-D3-methoxy-N-methyl-1H,4H-chromeno[4,3-c]pyrazole-3-carboxamide]
12 | 101 to 500 | 10 to 100 | COc1cc2c(cc1-c1ccn(C)n1)-c1c(c(C(=O)N3CCC(O)CC3(C)C)nn1-c1cc(Cl)cc(Cl)c1)CO2 (stereo not drawn) [Compound 7, (1-(3,5-dichlorophenyl)-7-methoxy-8-(1-methyl-1H-pyrazol-3-yl)-1,4-dihydrochromeno[4,3-c]pyrazol-3-yl)(4-hydroxy-2,2-dimethylpiperidin-1-yl)methanone]
13 | > 500 | < 10 | COc1cc2c(cc1-c1c[nH]nn1)-c1c(c(C(=O)N(C)C(C)(C)C)nn1-c1ccsc1)CO2 [Compound 194, N-tert-butyl-7-methoxy-N-methyl-1-(thiophen-3-yl)-8-(1H-1,2,3-triazol-4-yl)-1,4-dihydrochromeno[4,3-c]pyrazole-3-carboxamide]
14 | 101 to 500 | 10 to 100 | COc1cc2c(cc1-c1ccn(C)n1)-c1c(c(C(=O)N(C)C(C)(C)C)nn1-c1cc(Cl)cc(C(F)(F)F)c1)CO2 [Compound 64, N-tert-butyl-1-(3-chloro-5-(trifluoromethyl)phenyl)-7-methoxy-N-methyl-8-(1-methyl-1H-pyrazol-3-yl)-1,4-dihydrochromeno[4,3-c]pyrazole-3-carboxamide]
15 | 101 to 500 | < 10 | COc1cc(F)cc(-n2nc(C(=O)N3CCOCC3(C)C)c3c2-c2cc(-c4cnn(CC(N)=O)c4)c(OC)cc2OC3)c1 [Compound 73, 2-(4-(3-(3,3-dimethylmorpholine-4-carbonyl)-1-(3-fluoro-5-methoxyphenyl)-7-methoxy-1,4-dihydrochromeno[4,3-c]pyrazol-8-yl)-1H-pyrazol-1-yl)acetamide]
